According to patent US20050014706A1, “Method of treating tuberculosis” (priority 2003, published 2005):
Converted amounts (≈) assume the structure as drawn.

System: M. tuberculosis H37Rv
Assay: MIC vs. M. tuberculosis H37Rv, microplate Alamar Blue assay (MABA)
Format: cell-based
Settings: Table 3, parallel-synthesis carbazate library products

CC[C@H]1OC(=O)[C@H](C)[C@@H](O[C@H]2CC(C)(OC)[C@@H](O)[C@H](C)O2)[C@H](C)[C@@H](O[C@@H]2O[C@H](C)C[C@H](N(C)C)[C@H]2O)[C@](C)(OC)C[C@@H](C)C(=O)[C@H](C)[C@H]2N(NCc3nc4ccccc4s3)C(=O)O[C@]12C (stereo partly drawn) [F7′]
MIC: 16 µM (≈ 15 µg/mL)

CC[C@H]1OC(=O)[C@H](C)[C@@H](O[C@H]2CC(C)(OC)[C@@H](O)[C@H](C)O2)[C@H](C)[C@@H](O[C@@H]2O[C@H](C)C[C@H](N(C)C)[C@H]2O)[C@](C)(OC)C[C@@H](C)C(=O)[C@H](C)[C@H]2N(NCc3csc(-c4ccccc4)n3)C(=O)O[C@]12C (stereo partly drawn) [F9′]
MIC: 12.6 µM (≈ 12.1 µg/mL)

CC[C@H]1OC(=O)[C@H](C)[C@@H](O[C@H]2CC(C)(OC)[C@@H](O)[C@H](C)O2)[C@H](C)[C@@H](O[C@@H]2O[C@H](C)C[C@H](N(C)C)[C@H]2O)[C@](C)(OC)C[C@@H](C)C(=O)[C@H](C)[C@H]2N(NCc3cc(Br)cs3)C(=O)O[C@]12C (stereo partly drawn) [F11′]
MIC: 12.7 µM (≈ 12.2 µg/mL)

CC[C@H]1OC(=O)[C@H](C)[C@@H](O[C@H]2CC(C)(OC)[C@@H](O)[C@H](C)O2)[C@H](C)[C@@H](O[C@@H]2O[C@H](C)C[C@H](N(C)C)[C@H]2O)[C@](C)(OC)C[C@@H](C)C(=O)[C@H](C)[C@H]2N(NCc3cc4ccccc4s3)C(=O)O[C@]12C (stereo partly drawn) [G2′]
MIC: 11 µM (≈ 10.3 µg/mL)

CC[C@H]1OC(=O)[C@H](C)[C@@H](O[C@H]2CC(C)(OC)[C@@H](O)[C@H](C)O2)[C@H](C)[C@@H](O[C@@H]2O[C@H](C)C[C@H](N(C)C)[C@H]2O)[C@](C)(OC)C[C@@H](C)C(=O)[C@H](C)[C@H]2N(NCc3sccc3Oc3ccccc3)C(=O)O[C@]12C (stereo partly drawn) [G4′]
MIC: 13 µM (≈ 12.7 µg/mL)

CC[C@H]1OC(=O)[C@H](C)[C@@H](O[C@H]2CC(C)(OC)[C@@H](O)[C@H](C)O2)[C@H](C)[C@@H](O[C@@H]2O[C@H](C)C[C@H](N(C)C)[C@H]2O)[C@](C)(OC)C[C@@H](C)C(=O)[C@H](C)[C@H]2N(NCC3=Cc4ccccc4OC3)C(=O)O[C@]12C (stereo partly drawn) [G6′]
MIC: 11 µM (≈ 10.3 µg/mL)

CC[C@H]1OC(=O)[C@H](C)[C@@H](O[C@H]2CC(C)(OC)[C@@H](O)[C@H](C)O2)[C@H](C)[C@@H](O[C@@H]2O[C@H](C)C[C@H](N(C)C)[C@H]2O)[C@](C)(OC)C[C@@H](C)C(=O)[C@H](C)[C@H]2N(NCc3cc(Cl)cc(Br)c3O)C(=O)O[C@]12C (stereo partly drawn) [G8′]
MIC: 14 µM (≈ 14.1 µg/mL)

CC[C@H]1OC(=O)[C@H](C)[C@@H](O[C@H]2CC(C)(OC)[C@@H](O)[C@H](C)O2)[C@H](C)[C@@H](O[C@@H]2O[C@H](C)C[C@H](N(C)C)[C@H]2O)[C@](C)(OC)C[C@@H](C)C(=O)[C@H](C)[C@H]2N(NCC3CSN=N3)C(=O)O[C@]12C (stereo partly drawn) [G10′]
MIC: >16 µM

CC[C@H]1OC(=O)[C@H](C)[C@@H](O[C@H]2CC(C)(OC)[C@@H](O)[C@H](C)O2)[C@H](C)[C@@H](O[C@@H]2O[C@H](C)C[C@H](N(C)C)[C@H]2O)[C@](C)(OC)C[C@@H](C)C(=O)[C@H](C)[C@H]2N(NCc3ccc(N4CCC(c5ccccc5OC)CC4)c([N+](=O)[O-])c3)C(=O)O[C@]12C (stereo partly drawn) [G12′]
MIC: 19 µM (≈ 21.1 µg/mL)

CC[C@H]1OC(=O)[C@H](C)[C@@H](O[C@H]2CC(C)(OC)[C@@H](O)[C@H](C)O2)[C@H](C)[C@@H](O[C@@H]2O[C@H](C)C[C@H](N(C)C)[C@H]2O)[C@](C)(OC)C[C@@H](C)C(=O)[C@H](C)[C@H]2N(NCc3c(Cl)cccc3Cl)C(=O)O[C@]12C (stereo partly drawn) [H1′]
MIC: 11 µM (≈ 10.4 µg/mL)

CC[C@H]1OC(=O)[C@H](C)[C@@H](O[C@H]2CC(C)(OC)[C@@H](O)[C@H](C)O2)[C@H](C)[C@@H](O[C@@H]2O[C@H](C)C[C@H](N(C)C)[C@H]2O)[C@](C)(OC)C[C@@H](C)C(=O)[C@H](C)[C@H]2N(NCc3cccc4nsnc34)C(=O)O[C@]12C (stereo partly drawn) [H3′]
MIC: >22 µM

CC[C@H]1OC(=O)[C@H](C)[C@@H](O[C@H]2CC(C)(OC)[C@@H](O)[C@H](C)O2)[C@H](C)[C@@H](O[C@@H]2O[C@H](C)C[C@H](N(C)C)[C@H]2O)[C@](C)(OC)C[C@@H](C)C(=O)[C@H](C)[C@H]2N(NCc3ccc4c(c3)nnn4C)C(=O)O[C@]12C (stereo partly drawn) [H7′]
MIC: >22 µM
